The test system of assay [1] is histiocytic lymphoma (U937). The experiment in a line: cell proliferation assay ([methyl-3H] thymidine incorporation), U937. It is filed as cell-based, human. Conditions: Homo sapiens, U-937, 72 hours in culture, n=6, read-out: U937: percentage of control 3[H] Thymidine incorporation. As to the method:
(§1) Two human cell lines namely a histiocytic lymphoma (U937) and a melanoma (RPMI-7951) were seeded into 30 mm^2 tissue culture wells, in the appropriate culture medium supplemented with 10% fetal calf serum at a density of 250 cells/mm^2. Six hours later the test compounds were added in the same culture medium to the cells to give a final concentration of 6 μM. Control wells contained cells supplemented with the same culture medium containing the equivalent amount of drug vehicle, which in this case was DMSO at a final concentration of 0.08%. After 72 hours in culture the cells were pulsed for 3 hours with [methyl-^3[H] Thymidine] (2 μCi/ml) and then harvested onto filter mats and DNA associated radioactivity counted. Results are expressed as percentage of control ^3[H] Thymidine incorporation (n=6±1 stdv).
Further examples were tested in the U937 assay described above at 6 μM and the results, expressed as percentage of control ^3[H] Thymidine incorporation (n=6±1 stdv), are set out in the following Table 2.
as §1, with “A” for “Two”, “line,” for “lines”, “(U937), was” for “(U937) and a melanoma (RPMI-7951) were”, “30MM^2” for “30 mm^2”, “cellS/MM^2.” for “cells/mm^2.”, “were” for “are”
A general note: Dividing cells build labelled thymidine or BrdU into new DNA.

The test system of a further assay is melanoma (RPMI-7951). The assay can be described thus: cell proliferation assay ([methyl-3H] thymidine incorporation), RPMI-7951. The format is cell-based, human. Conditions: Table 1; final concentration 6 μM; 72 hours in culture, 3 hours pulse; n=6. As for the experimental part:
as §1

The mark [2] stands for this setting: Table 1, final concentration 6 μM, 3 hours pulse.

The record followed here is patent US6462023B1, “Cytostatic agents” (British Biotech Pharmaceuticals, Ltd., priority 1988, dated 2002).

Like-named read-outs stand apart in the source and are kept apart here.

As to `C=CC[C@H](C(=O)NO)[C@@H](CC(C)C)C(=O)N[C@@H](Cc1ccccc1)C(=O)OC(C)C` [Example 3, 2S-(3S-Hydroxycarbamoyl-2R-isobutyl-hex-5-enoylamino)-3-phenylpropionic acid isopropyl ester], the activity at 6 µM in assay [1] (setting [2]) came to 2.5%. The “RPMI: percentage of control 3[H] Thymidine incorporation” value (“RPMI: percentage” below) with melanoma (RPMI-7951) was 27 percentage of control.

For `C=CC[C@H](C(=O)NO)[C@@H](CC(C)C)C(=O)N[C@@H](Cc1ccccc1)C(=O)OCC` [Example 2, 2S-(3S-Hydroxycarbamoyl-2R-isobutyl-hex-5-enoylamino)-3-phenylpropionic acid ethyl ester], the activity at 6 µM in assay [1] (setting [2]) worked out at 7%. In addition, the “RPMI: percentage” value in the assay on melanoma (RPMI-7951) was 37 percentage of control.

For the molecule `C=CC[C@H](C(=O)NO)[C@@H](CC(C)C)C(=O)N[C@@H](Cc1ccccc1)C(=O)OC` [Example 1, 2S-(3S-Hydroxycarbamoyl-2R-isobutyl-hex-5-enoylamino)-3-phenylpropionic acid methyl ester], in assay [1] (setting [2]), the activity at 6 µM was 7%. Besides, in the assay with melanoma (RPMI-7951), the “RPMI: percentage” value was 40 percentage of control.

`COC(=O)[C@H](Cc1ccccc1)NC(=O)[C@H](CC(C)C)[C@H](C)C(=O)NO` [Example 5, 3R-(2-Phenyl-1S-methylcarboxy-ethylcarbamoyl)-2S, 5-dimethylhexanohydroxamic acid]: in assay [1] (setting [2]), the activity at 6 µM stood at 19%. Besides, the “RPMI: percentage” value with melanoma (RPMI-7951) was 82 percentage of control.

On to `CCC[C@H](C(=O)NO)[C@@H](CC(C)C)C(=O)N[C@@H](Cc1ccccc1)C(=O)OC(C)C` [Example 21, 2S-(3S-Hydroxycarbamoyl-2R-isobutyl-hexanoylamino)-3-phenylpropionic acid isopropyl ester], for which the activity at 6 µM in assay [1] (Table 2, 6 μM) was 1%.

Consider `COCCOC(=O)[C@H](NC(=O)[C@H](CC(C)C)[C@H](C)C(=O)NO)C(C)(C)C` [Example 18, 2S-[2R-(1S-Hydroxycarbamoyl-ethyl)-4-methyl-pentanoylamino]-3,3-dimethyl-butyric acid 2-methoxy-ethyl ester], for which the activity at 6 µM in assay [1] (Table 2, 6 μM) worked out at 54%.

With `CC(C)C[C@@H](C(=O)N[C@@H](Cc1ccccc1)C(=O)OC1CCCC1)[C@H](O)C(=O)NO` [Example 11, 2S-[2R-(S-Hydroxy-hydroxycarbamoyl-methyl)-4-methyl-pentanoylamino]-3-phenyl-propionic acid cyclopentyl ester], the activity at 6 µM in assay [1] (Table 2, 6 μM) turned out to be 0%.

In the case of `C=CC[C@H](C(=O)NO)[C@@H](CC(C)C)C(=O)N[C@H](Cc1ccccc1)C(=O)OC(C)C` [Example 23, 2R-(3S-Hydroxycarbamoyl-2R-isobutyl-hex-5-enoylamino)-3-phenylpropionic acid isopropyl ester], in assay [1] (Table 2, 6 μM), the activity at 6 µM stood at 36%.

As to `CC(C)C[C@@H](C(=O)N[C@@H](Cc1ccccc1)C(=O)OC(C)C)[C@H](CSc1cccs1)C(=O)NO` [Example 17, 2S-{2R-[1S-Hydroxycarbamoyl-2-(thiophen-2-ylsulphanyl)-ethyl]-4-methyl-pentanoylamino}-3-phenyl-propionic acid isopropyl ester], the activity at 6 µM in assay [1] (Table 2, 6 μM) was 0%.

Consider `C=CC[C@H](C(=O)NO)[C@@H](CC(C)C)C(=O)N[C@H](C(=O)OC1CCCC1)c1ccccc1` [Example 41, 2S-(3S-Hydroxycarbamoyl-2R-isobutyl-hex-5-enoylamino)-2-phenylethanoic acid cylcopentyl ester], for which the activity at 6 µM in assay [1] (Table 2, 6 μM) was determined as 0%.

As to `C=CC[C@H](C(=O)NO)[C@@H](CC(C)C)C(=O)N[C@@H](Cc1ccccc1)C(=O)OC1CCN(C)CC1` [Example 29, 2S-(3S-Hydroxycarbamoyl-2R-isobutyl-hex-5-enoylamino)-3-phenylpropionic acid 1-methyl-piperidin-4-yl ester], in assay [1] (Table 2, 6 μM), the activity at 6 µM came to 49%.

With `C=CC[C@H](C(=O)NO)[C@@H](CC(C)C)C(=O)N[C@H](C(=O)OC(C)C)C(C)(C)C` [Example 22, 2S-(3S-Hydroxycarbamoyl-2R-isobutyl-hex-5-enoylamino)-3,3-dimethyl-butyric acid isopropyl ester], the activity at 6 µM in assay [1] (Table 2, 6 μM) stood at 51%.

Consider `C=CC[C@H](C(=O)NO)[C@@H](CC(C)C)C(=O)N[C@H](Cc1ccccc1)C(=O)OCCOC` [Example 13, 2S-(3S-Hydroxycarbamoyl-2R-isobutyl-hex-5-enoylamino)-3-phenylpropionic acid 2-methoxy-ethyl ester], for which the activity at 6 µM in assay [1] (Table 2, 6 μM) came out at 4%.

On to `CCCCCC[C@H](CC(=O)NO)C(=O)N[C@@H](Cc1ccccc1)C(=O)OC(C)C` [Example 10, 2S-(2R-Hydroxycarbamoylmethyl-octanoylamino)-3-phenyl-propionic acid isopropyl ester], for which the activity at 6 µM in assay [1] (Table 2, 6 μM) amounted to 1%.
